Tests used:
Format in all cases: cell-based
RARα = target: T1, RARα (Mus musculus, UniProt P11416); experiment: RAR alpha transactivation assay (gal4-RAR LBD fusion, luciferase reporter, COS-7 cells); details: mouse RAR ligand binding domain; usually three experiments; read-out: α EC50
T1 construct: expressed in transfected cells; host or cells: COS-7
T1 sequence (P11416 183-417 limits assumed): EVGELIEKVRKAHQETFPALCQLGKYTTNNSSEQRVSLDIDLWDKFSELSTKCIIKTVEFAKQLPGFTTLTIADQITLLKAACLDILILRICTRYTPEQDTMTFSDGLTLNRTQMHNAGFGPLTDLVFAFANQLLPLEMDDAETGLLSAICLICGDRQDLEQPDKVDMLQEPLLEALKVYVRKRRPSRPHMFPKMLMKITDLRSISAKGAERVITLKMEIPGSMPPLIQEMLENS
Method: (§1) Compounds were tested in transactivation assays at the RAR α, β and γ receptors.
(§2) Transactivation assays for RAR alpha, beta and gamma receptors:
(§3) Transcriptional transactivation assays have been performed with gal4 fusion receptor constructs, created using each of the mouse RAR ligand-binding domains, co-transfected with the pFR-luc (Stratagene) reporter construct in COS-7 cells.
(§4) Briefly, on day one, 96 well plates were seeded with 8000 cells per well then left to recover overnight. On day two, the cells were co-transfected with 100ng of reporter plasmid and 10ng of the appropriate receptor plasmid per well using lipofectamine (Invitrogen). On day three, the lipofectamine containing media was replaced by a DMEM without phenol red, followed by the addition of novel compounds dissolved in 1µl of DMSO to each well’s 100µl total volume. Finally, on day four, the cells were lysed and their luciferase substrate was provided by the BrightGlo reagent (Promega), the plates were then read on the MicroBeta TriLux (Perkin Elmer).
(§5) Data for test compounds are quoted as EC50 values. Where replicate data has been generated the data are quoted as the mean EC50 from the separate experiments.

RARβ = target: T2, RARβ (Mus musculus, UniProt P22605); experiment: RAR beta transactivation assay (gal4-RAR LBD fusion, luciferase reporter, COS-7 cells); details: for Fold selectivity for β over α: EC50 ratio of α to β, Tables 1 and 4; for Fold selectivity for β over α / Fold selectivity for β over γ: mouse; for Fold selectivity for β over γ: EC50 ratio of γ to β; for EC50: mouse RAR ligand binding domain, usually three experiments, read-out: β EC50
T2 construct: expressed in transfected cells; host or cells: COS-7
T2 sequence (P22605 210-444 limits assumed): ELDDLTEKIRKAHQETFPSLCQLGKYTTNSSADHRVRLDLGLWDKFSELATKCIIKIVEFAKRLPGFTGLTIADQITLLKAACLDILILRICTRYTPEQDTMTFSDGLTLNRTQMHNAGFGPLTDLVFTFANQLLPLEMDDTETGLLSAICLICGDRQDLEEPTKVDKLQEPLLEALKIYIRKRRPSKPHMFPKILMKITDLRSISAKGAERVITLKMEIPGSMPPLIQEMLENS
Method: as §1, §2, §3, §4, §5

RARγ = target: T3, RARγ (Mus musculus, UniProt P18911); experiment: RAR gamma transactivation assay (gal4-RAR LBD fusion, luciferase reporter, COS-7 cells); details: mouse RAR ligand binding domain; Tables 1 and 4; read-out: γ EC50
T3 construct: expressed in transfected cells; host or cells: COS-7
T3 sequence (P18911 185-419 limits assumed): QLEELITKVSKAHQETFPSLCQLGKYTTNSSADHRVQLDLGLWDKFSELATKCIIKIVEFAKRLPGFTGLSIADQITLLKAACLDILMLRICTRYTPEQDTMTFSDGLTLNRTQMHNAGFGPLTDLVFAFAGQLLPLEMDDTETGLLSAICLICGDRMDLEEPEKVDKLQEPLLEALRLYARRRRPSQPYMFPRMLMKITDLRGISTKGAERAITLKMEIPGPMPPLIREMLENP
Method: as §1, §2, §3, §4, §5

Compound	EC50 (RARα) [nM]	Fold selectivity for β over α (RARβ)	Fold selectivity for β over γ (RARβ)	EC50 (RARβ) [nM]	fold more potent than 1 as an RARβ agonist (RARβ; relative to amide 1) [fold]	fold loss in potency as a RARβ agonist relative to 5 (RARβ; relative to 5) [fold]	EC50 (RARγ) [nM]
CCOc1c(Cl)cc(-c2cnc(-c3ccc(C(=O)O)cc3)o2)cc1Cl [Compound 4]	60	2.1	1.6	28	> 40	–	–
CC(C)(C)c1cc(-c2nc(-c3ccc(C(=O)O)cc3)no2)cc(C(C)(C)C)c1 [Compound 9]	4	–	2.1	1.4	–	–	–
Cc1ccc(C)c2oc(-c3nc(-c4ccc(C(=O)O)cc4)no3)nc12 [Compound 13]	114	–	7.5	11	–	–	–
Cc1ccc(C)c2sc(-c3nc(-c4ccc(C(=O)O)cc4)no3)cc12 [Compound 12]	30	–	2	3.4	–	–	–
Cc1cc(C(=O)O)ccc1-c1noc(-c2cc3c(C)ccc(C)c3o2)n1 [Compound 17]	600	–	0.3	47	–	–	–
CC1(C)CCC(C)(C)c2cc(-c3nc(-c4ccc(C(=O)O)cc4)no3)ccc21 [Compound 8]	18	–	0.0041	4200	–	> 2700	–
Cc1ccc(C)c2oc(-c3nc(-c4ccc(C(=O)O)c(F)c4)no3)cc12 [Compound 14]	16	–	3.8	2.2	–	–	–
COc1ccc(-c2ccc3cc(C(=O)O)ccc3c2)cc1C1(C)CCCCC1 [CD 2019, reference compound]	9.2	–	–	0.83	–	–	1.6
CCOc1c(Cl)cc(-c2nc(-c3ccc(C(=O)O)cc3)no2)cc1Cl [Compound 5]	18	12	19	1.5	–	–	28
CCOc1c(Cl)cc(-c2c[nH]c(-c3ccc(C(=O)O)cc3)n2)cc1Cl [Compound 3]	594	1.4	–	423	–	–	–
CCCCOCCOc1nc(-c2ccc(C(=O)O)c(F)c2)sc1C [AC 261066, reference compound]	70	5.8	2.8	12	–	–	33
CCOc1c(Cl)cc(-c2nnc(-c3ccc(C(=O)O)cc3)o2)cc1Cl [Compound 7]	58	0.92	2.4	63	–	–	–
Cc1cc(-c2noc(-c3cc4c(C)ccc(C)c4o3)n2)ccc1C(=O)O [Compound 15]	89	–	1.8	14	–	–	–
CCOc1c(Cl)cc(-c2noc(-c3ccc(C(=O)O)cc3)n2)cc1Cl [Compound 6]	31	0.28	0.05	110	–	–	–
O=C(O)c1ccc(-c2noc(-c3cc4c(C(F)(F)F)ccc(F)c4o3)n2)cc1 [Compound 11]	19	–	2	2.5	–	–	–
CCOc1c(Cl)cc(C(=O)Nc2ccc(C(=O)O)cc2)cc1Cl [Compound 1, 4-[(3,5-dichloro-4-ethoxybenzoyl)amino]benzoic acid]	46	0.037	24	1230	–	–	–
Cc1ccc(C)c2oc(-c3nc(-c4ccc(C(=O)O)cc4F)no3)cc12 [Compound 16]	61	–	0.33	11	–	–	–
CCOc1c(Cl)cc(-c2csc(-c3ccc(C(=O)O)cc3)n2)cc1Cl [Compound 2]	240	2	1.3	120	–	–	–

— article PMC6419571, “Discovery and lead optimisation of a potent, selective and orally bioavailable RARβ agonist for the potential treatment of nerve injury” (Bioorganic & Medicinal Chemistry Letters, 2019)
